Laboratory results: US11260050B2, “Combination of cotinine plus antioxidant for treatment-resistant depression and correction of astrocytes functional deficit induced by depression and other neuropathological” (UNIVERSIDAD SAN SEBASTIAN, priority 2017, dated 2022)

Columns and labels:
GFAP = GFAP immunoreactivity and GFAP+ cell density, hippocampus and frontal cortex (Example 2); type: in vivo, C57BL/6 male mice
Description: Mice between 2-3 months of age after one week of acclimatization were randomly divided into two groups. Stressed mice were subjected to restraint stress. Control (non-restrained) mice were allowed to move freely during this period. After the stress exposure period, mice were divided into three experimental groups: 1) Non-restrained mice treated with vehicle (PBS, pH 7.4) serving as unstressed controls (n=8); 2) Restrained mice (RS) treated with vehicle (n=8); 3), RS mice treated with 24 μl of a cotinine solution (10 mg/ml in PBS, pH 7.4) via intranasal route of administration (n=6). Treatments were administered daily until euthanasia. After two weeks of treatments mice were behaviorally tested and euthanized (FIG. 10)
For all protein analyses, mice were euthanized and brains removed. Each brain was divided into two hemispheres. The left hemisphere of brains was dissected out to collect the regions of interest and quickly frozen for later analyses. For the immunohistochemical (IHC) analysis the right hemisphere of each mouse brain was placed in 10% formalin in PBS pH 7.4 for 48 h and then embedded in paraffin. Each region of interest was located using Paxinos Atlas as a reference (Paxinos and Franklin, 2004), and serial […] of 4 μm (n≥5/mouse) were collected using the Microtome Leica RM 2125RT and mounted on silanized glass slides.
The analysis of GFAP^+ cells was performed using tissue slices containing the ventral hippocampus (Approx. Bregma −4.08 mm, interaural 4.92 mm) and frontal cortex (Approx. Bregma 3.2 mm, interaural 1.54 mm). Sagittal sections of brains were collected in PBS and processed for GFAP immunoreactivity (IR). Brain slices were immersed in xylene and a decreasing graduation of ethanol baths for hydration. Then, slides were subjected to a standard process of antigenic recovery in buffer citrate pH=6 in a pressurized saucepan (Biocare Medical, Walnut Creek, Calif.) for 30 min. Next, slides were incubated with a solution of 3% hydrogen peroxide to block endogenous peroxidase for 5 min, washed with PBS, and blocked with a horse serum solution (Vectastain Elite ABC, Vector Laboratories, Burlingame, Calif., USA) for 10 min at room temperature (RT). Sections were washed in PBS and incubated for 1 hour (Franklin, 2001) at RT with an antibody against GFAP 1:100 (Sigma). After washing with PBS, sections were incubated with a biotinylated secondary antibody for 10 min. Then, sections were washed with PBS and incubated with the amplifier solution from the Vectastain Elite kit for 10 min at RT. The reaction was visualized using ImmunoDetector DAB (SB Bio Inc., Santa Barbara, Calif., USA). For counterstaining, sections were stained with hematoxylin for 30 seconds (sec), dehydrated in baths of ascending percentages of alcohol solutions and xylene, and mounted with synthetic resin.
For the IR analysis, for each mouse, three digital images were randomly selected at 40× magnifications in the areas of interest (hippocampus and frontal cortex) (n=5-6/condition). […] The determination of the area of the immunolabeling was calculated delimiting the IR areas using the ImageJ software (National Institute of Health, Bethesda, […]., USA). For all analyses, GFAP^+ astrocytes were selected randomly from the frontal cortex and the CA1, CA3 and dentate gyrus regions of the hippocampus and quantified. […]

GFAP+ astrocytes = assay: Morphology and fractal analysis of GFAP+ cells in the hippocampus (Example 2); type: in vivo, C57BL/6 male mice
Description: For the IR analysis, for each mouse, three digital images were randomly selected at 40× magnifications in the areas of interest (hippocampus and frontal cortex) (n=5-6/condition). The images were taken using a digital camera attached to a light microscope (Micrometrics, MilesCo Scientific, Princeton, Minn., USA) connected to a camera operated by a commercial software (Micrometrics SE Premium). The determination of the area of the immunolabeling was calculated delimiting the IR areas using the ImageJ software (National Institute of Health, Bethesda, […]., USA). For all analyses, GFAP^+ astrocytes were selected randomly from the frontal cortex and the CA1, CA3 and dentate gyrus regions of the hippocampus and quantified. Using a digital camera on an inverted microscope, black and white images of GFAP^+ astrocytes were obtained and processed with Image J software. Using a 20× objective, cells were chosen randomly in the same area selected for immunostaining, and the binary overlay of a cell was created by thresholding. For all images, a threshold value was established at the level at which the binary overlay entirely enclosed the cell body and projections. All pixels above the threshold value were considered as belonging to the cell images. Finally, the binary silhouette of the whole cell was reduced to its one-pixel outline for estimation of the fractal dimensions with the FracLac 2.5 ImageJ plug-in (Karperien et al., 2013; Karperien and Jelinek, 2015)
Fractal analysis was done on binary images by means of the dilation method (Schaffner and Ghesquiere, 2001). The slope of the regression line (S) is related to the fractal dimension (D) by D=1−S. Each pixel in the cell outline was replaced with a disk of a diameter fluctuating from 3-61 pixels and the area of the widened outline divided by the diameter of structuring element was plotted against this diameter on a log-log scale.
the area of the cell body that is calculated as the two-dimensional cross-sectional area contained within the boundary of the cell body.
The area of the convex polygon formed by connecting the tips of the longest astrocytic processes (convex hull area). Convex hull values indicate the size of the branching field of the astrocyte. The amount of physical space is defined in terms of convex-hull volume, surface area, area, and or perimeter.
Measures heterogeneity and complements fractal dimension analysis in describing structural complexity (Karperien et al., 2013; Karperien and Jelinek, 2015; Schaffner and Ghesquiere, 2001).

[1] = cotinine IN administered after RS
[2] = cotinine-treated restrained mice

**Q.** How did the “number of hippocampal GFAP+ cells counted” value (GFAP; Ctrl 144, RS 97) turn out when `CN1C(=O)CC[C@H]1c1cccnc1` [Cotinine, (5S)-1-methyl-5-(3-pyridyl) pyrrolidin-2-one] was run?
**A.** 140

**Q.** And the “GFAP IR in the frontal cortex” value (GFAP; [1])?
**A.** 90 % of control values

**Q.** What about the “GFAP IR in the hippocampus” value (GFAP; [1]) of the same molecule?
**A.** 84 % of control value

**Q.** And the “GFAP+ cell density in hippocampal regions” value (GFAP; restrained mice, CA1 p<0.01, CA2 p<0.05, DG p<0.01)?
**A.** significantly higher in the cotinine-treated restrained mice relative to vehicle-treated restrained mice

**Q.** And the “GFAP+ cell density in control (non-stressed) mice” value (GFAP; vehicle-treated vs cotinine-treated control mice)?
**A.** No significant differences

**Q.** And the “GFAP+ cell area across CA1, CA3 and DG” value (GFAP+ astrocytes; [2])?
**A.** statistically indistinguishable from nonstressed controls

**Q.** What about the “appearance of GFAP+ astrocytes in hippocampi and frontal cortices” value (GFAP+ astrocytes; [2]) of the same molecule?
**A.** large GFAP^+ cells with longer and more complex arborization

**Q.** And the “arbor area of astrocytes, DG” value (GFAP+ astrocytes; p<0.001 vs vehicle-treated restrained mice)?
**A.** greater astrocytic arborization than vehicle-treated, restrained mice

**Q.** And the “fractal dimension (FD) of astrocytes, DG” value (GFAP+ astrocytes; p<0.05)?
**A.** vehicle-treated, restrained mice had a significant reduction in FD of astrocytes in the DG when compared to cotinine-treated, restrained mice

**Q.** And the “lacunarity of astrocytes, DG” value (GFAP+ astrocytes; p<0.05)?
**A.** vehicle-treated, restrained mice had reduced lacunarity of astrocytes relative to both their cotinine-treated, stressed

**Q.** What about the “arbor area of astrocytes, CA3” value (GFAP+ astrocytes; p<0.05 vs non-stressed controls, p<0.01 vs vehicle-treated restrained) of the same molecule?
**A.** significantly more arbor area of astrocytes than non-stressed controls

**Q.** And the “arbor area of astrocytes, CA1” value (GFAP+ astrocytes; p<0.05 vs non-stressed controls, p=0.075 vs vehicle-treated stressed)?
**A.** significantly more arbor area than the non-stressed controls
